# Measurements: PMC12487869, “Toward Imaging of the GABA Transporter Type 1 In Vivo: Quantitative Evaluation of 4 Novel PET Radiotracers in Nonhuman Primates” (Journal of Nuclear Medicine, 2025)
# Experiments:
# [1] = Plasma free fraction (fp), ultrafiltration method; format: in vitro ADME, rhesus monkeys (Macaca mulatta); conditions: measured in triplicate per scan, mean ± SD
# Procedure: The plasma free fraction (fp) for each scan was measured in triplicate using the ultrafiltration method and calculated as the ratio of radioactivity in the filtrate to that in the plasma ([24]).
# GAT-1 [2] = molecular target: T1, GAT-1 (Macaca mulatta, UniProt H9ELS5); assay: PET brain imaging with kinetic modeling (1TCM), baseline and tiagabine blocking scans; format: in vivo, rhesus monkeys (Macaca mulatta); conditions: for Median VT across ROIs: 1TCM
# T1 construct: from tissue; host or cells: brain of living rhesus monkeys (in vivo PET)
# Procedure: Twenty scans were acquired from 4 rhesus monkeys (Macaca mulatta). Each monkey underwent baseline and blocking scans with ^18F-GATT-31, ^18F-GATT-34, ^18F-GATT-39, or ^18F-GATT-44 (Fig. 1) on a Focus-220 small-animal PET scanner (Siemens Healthineers).
# (§1) Before each scan, each monkey was sedated with alfaxalone (2 mg/kg), midazolam (0.3 mg/kg), and dexmedetomidine (0.01 mg/kg), and anesthesia was maintained with 1.5%–2.5% isoflurane. Heart rate, blood pressure, respiration rate, and oxygen saturation were monitored continuously. An intravenous line was placed in the saphenous or cephalic vein for delivery of the radiotracer, as well as tiagabine during blocking studies (0.5 mg/kg administered 19 ± 4 min before radiotracer injections). A catheter was placed in the radial or tibial artery for blood sampling.
# Before injection, a transmission scan was acquired. Starting with injection of the radiotracer, PET emission data were acquired in list-mode format and binned into 45 frames (6 × 30 s, 3 × 1 min, 2 × 2 min, and 34 × 5 min).
# For region-of-interest (ROI) definition, each PET image was registered to an in-house rhesus monkey anatomical MRI template using the concatenation of a rigid-body transformation between the summed PET image (0–10 min) and corresponding monkey’s MRI (using the FMRIB Linear Image Registration Tool) and a nonlinear transformation matrix estimated between the monkey’s MRI and the MRI template (BioImage Suite software version 3.01). Regional time–activity curves were extracted for the following 11 ROIs: brain stem, caudate, cerebellum, cingulate cortex, frontal cortex, hippocampus, insula, occipital cortex, putamen, temporal cortex, and thalamus.
# For each baseline and blocking scan, kinetic analysis was performed using a 1-tissue compartment model (1TCM), a reversible 2-tissue compartment model (2TCM; k4 > 0), and an irreversible 2-tissue compartment model (2TiCM; k4 = 0), including a blood volume fraction (Vb) term and a time-delay term. Vb was estimated for each time–activity curve using the whole-blood curve fitted with a sum of exponentials. The time delay (Δt) between the input function and the brain was estimated by fitting the first 10 min of the whole-brain time–activity curve to a 1TCM with 3 parameters: K1, Vb, and Δt (k2 was set to 0 because of the negligible radiotracer washout during the first 10 min). This estimated time delay value was then used in the time–activity curve fits. The primary parameters of interest were the influx constant (K1, expressed in microliters per minute per cubic centimeter, since values were low), the volume of distribution (VT, expressed in milliliters per cubic centimeter), and the net influx constant (Ki, expressed in milliliters per minute per cubic centimeter) for 2TiCM.
# GAT-1 [3] = molecular target: T1, GAT-1; assay: Occupancy plots from baseline and tiagabine blocking PET scans (occupancy, VND, BPND); format: in vivo, rhesus monkeys (Macaca mulatta); set-up: key to BPND: BPND = VT/VND − 1 (dimensionless); conditions: for VND: occupancy plot; for Occupancy: tiagabine 0.5 mg/kg occupancy measured with this radiotracer
# Procedure: as §1
# Occupancy plots ([26]) were used to estimate tiagabine occupancy and the nondisplaceable volume of distribution (VND). This VND value was used to compute the nondisplaceable binding potential (BPND = VT/VND − 1). To compare the performance between 2 radiotracers, a Guo plot ([27]) was created, using baseline VT values, to assess the relative affinity and BPND values of each radiotracer.
# [4] = Metabolite analysis of arterial plasma (unmetabolized parent fraction), column-switching HPLC; format: in vivo, rhesus monkeys (Macaca mulatta); conditions: mean ± SD
# Procedure: Arterial blood samples were collected for each scan to measure the input function. Metabolite analysis was performed using an automatic column-switching high-performance liquid chromatography system ([22]) for 7 arterial blood samples collected at 5, 15, 30, 60, 90, 120, and 180 min. The radiometabolite-corrected arterial plasma input function was obtained by calculating the product of the fitted total plasma (fitted with a sum of exponentials) and unmetabolized parent fraction curves (using an integrated γ-function ([23])).
# GAT-1 [5] = molecular target: T1, GAT-1; assay: Time stability of VT with shortened scan duration; format: in vivo, rhesus monkeys (Macaca mulatta); conditions: for Mean percent difference in VT on shortening scan from 180 to 120 min: baseline, 3 monkeys; for Mean percent difference in VT with respect to the 180-min value: blocking condition
# Procedure: Finally, to assess the possibility of reducing scan duration, time stability was assessed for the most promising radiotracer by sequentially shortening the time–activity curves from 180 to 60 min and reestimating the kinetic parameters. Scan-time reduction was deemed possible if the VT values from these shortened time–activity curves were within 10% of those estimated with the full time–activity curves.
# T1 sequence (H9ELS5 1-599): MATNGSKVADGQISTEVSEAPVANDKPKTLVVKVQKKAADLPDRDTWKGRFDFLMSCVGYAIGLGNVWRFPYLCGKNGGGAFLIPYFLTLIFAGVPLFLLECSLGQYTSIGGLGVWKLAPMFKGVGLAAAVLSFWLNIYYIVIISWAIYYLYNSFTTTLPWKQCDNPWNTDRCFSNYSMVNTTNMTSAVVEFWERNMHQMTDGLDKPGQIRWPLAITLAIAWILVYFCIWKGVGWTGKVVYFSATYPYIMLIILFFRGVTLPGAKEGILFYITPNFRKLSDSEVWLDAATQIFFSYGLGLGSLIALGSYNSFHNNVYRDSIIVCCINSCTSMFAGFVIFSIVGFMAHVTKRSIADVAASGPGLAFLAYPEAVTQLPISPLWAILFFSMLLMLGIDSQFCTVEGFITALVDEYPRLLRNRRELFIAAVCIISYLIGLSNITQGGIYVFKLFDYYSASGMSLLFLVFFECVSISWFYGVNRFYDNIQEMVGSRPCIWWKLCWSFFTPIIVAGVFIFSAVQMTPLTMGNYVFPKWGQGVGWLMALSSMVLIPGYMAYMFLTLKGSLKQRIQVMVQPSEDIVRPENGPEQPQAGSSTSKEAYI
smiles,measurement,setting,value
Cc1ccccc1C(=CCCN1CCCC(C(=O)O)C1)c1ccccc1[18F] (centres unmarked) [^18F-GATT-44],Free fraction,[1],13.5 ± 1.4%
same,Median VT across ROIs,GAT-1 [2]; after blocking with tiagabine 0.5 mg/kg,1.7 mL/cm^3
same,Median VT across ROIs,GAT-1 [2]; baseline,3.5 mL/cm^3
same,VT,"GAT-1 [2]; Average of ROIs, baseline, 3 monkeys, mean ± SD",3.40 ± 0.52 mL/cm^3
same,VT,"GAT-1 [2]; Average of ROIs, blocking (tiagabine 0.5 mg/kg), 3 monkeys, mean ± SD",1.66 ± 0.11 mL/cm^3
same,VT,"GAT-1 [2]; Brain stem, baseline, averaged across 3 monkeys, mean ± SD",2.61 ± 0.42 mL/cm^3
same,VT,"GAT-1 [2]; Brain stem, blocking (tiagabine 0.5 mg/kg), 3 monkeys, mean ± SD",1.45 ± 0.20 mL/cm^3
same,VT,"GAT-1 [2]; Caudate nucleus, baseline, 3 monkeys, mean ± SD",2.25 ± 0.13 mL/cm^3
same,VT,"GAT-1 [2]; Caudate nucleus, blocking (tiagabine 0.5 mg/kg), 3 monkeys, mean ± SD",1.27 ± 0.11 mL/cm^3
same,VT,"GAT-1 [2]; Cerebellum, baseline, 3 monkeys, mean ± SD",3.36 ± 0.39 mL/cm^3
same,VT,"GAT-1 [2]; Cerebellum, blocking (tiagabine 0.5 mg/kg), 3 monkeys, mean ± SD",1.60 ± 0.13 mL/cm^3
same,VT,"GAT-1 [2]; Cingulate cortex, baseline, 3 monkeys, mean ± SD",4.30 ± 0.39 mL/cm^3
same,VT,"GAT-1 [2]; Cingulate cortex, blocking (tiagabine 0.5 mg/kg), 3 monkeys, mean ± SD",2.16 ± 0.18 mL/cm^3
same,VT,"GAT-1 [2]; Frontal cortex, baseline, 3 monkeys, mean ± SD",3.73 ± 0.46 mL/cm^3
same,VT,"GAT-1 [2]; Frontal cortex, blocking (tiagabine 0.5 mg/kg), 3 monkeys, mean ± SD",1.79 ± 0.04 mL/cm^3
same,VT,"GAT-1 [2]; Hippocampus, baseline, 3 monkeys, mean ± SD",2.98 ± 1.10 mL/cm^3
same,VT,"GAT-1 [2]; Hippocampus, blocking (tiagabine 0.5 mg/kg), 3 monkeys, mean ± SD",1.44 ± 0.07 mL/cm^3
same,VT,"GAT-1 [2]; Insula, baseline, 3 monkeys, mean ± SD",4.46 ± 0.67 mL/cm^3
same,VT,"GAT-1 [2]; Insula, blocking (tiagabine 0.5 mg/kg), 3 monkeys, mean ± SD",1.97 ± 0.07 mL/cm^3
same,VT,"GAT-1 [2]; Occipital cortex, baseline, 3 monkeys, mean ± SD",4.55 ± 0.74 mL/cm^3
same,VT,"GAT-1 [2]; Occipital cortex, blocking (tiagabine 0.5 mg/kg), 3 monkeys, mean ± SD",2.04 ± 0.11 mL/cm^3
same,VT,"GAT-1 [2]; Putamen, baseline, 3 monkeys, mean ± SD",2.71 ± 0.05 mL/cm^3
same,VT,"GAT-1 [2]; Putamen, blocking (tiagabine 0.5 mg/kg), 3 monkeys, mean ± SD",1.44 ± 0.12 mL/cm^3
same,VT,"GAT-1 [2]; Temporal cortex, baseline, 3 monkeys, mean ± SD",4.48 ± 1.24 mL/cm^3
same,VT,"GAT-1 [2]; Temporal cortex, blocking (tiagabine 0.5 mg/kg), 3 monkeys, mean ± SD",1.93 ± 0.05 mL/cm^3
same,VT,"GAT-1 [2]; Thalamus, baseline, 3 monkeys, mean ± SD",1.96 ± 0.10 mL/cm^3
same,VT,"GAT-1 [2]; Thalamus, blocking (tiagabine 0.5 mg/kg), 3 monkeys, mean ± SD",1.19 ± 0.17 mL/cm^3
same,Radiotracer clearance time (half-life = ln(2)/k2),"GAT-1 [2]; brain, baseline",175 ± 42 min
same,Blood volume fraction (Vb),"GAT-1 [2]; mean ± SD, n = 66 (11 ROIs × 6 scans)",0.036 ± 0.013 mL/cm^3
same,Overall spatial correlation (r) of regional distribution with ^11C-flumazenil,"GAT-1 [2]; nonhuman primates, P < 0.01, previously acquired ^11C-flumazenil data",0.87
same,BPND,"GAT-1 [3]; Average of ROIs, baseline",2.88 ± 0.59
same,BPND,"GAT-1 [3]; Average of ROIs, blocking",0.90 ± 0.13
same,BPND,"GAT-1 [3]; Brain stem, baseline, BPND = VT/VND – 1 with averaged VND",1.98 ± 0.48
same,BPND,"GAT-1 [3]; Brain stem, blocking, BPND = VT/VND – 1 with averaged VND",0.66 ± 0.23
same,BPND,"GAT-1 [3]; Caudate nucleus, baseline",1.57 ± 0.15
same,BPND,"GAT-1 [3]; Caudate nucleus, blocking",0.45 ± 0.12
same,BPND,"GAT-1 [3]; Cerebellum, baseline",2.84 ± 0.44
same,BPND,"GAT-1 [3]; Cerebellum, blocking",0.83 ± 0.15
same,BPND,"GAT-1 [3]; Cingulate cortex, baseline",3.91 ± 0.44
same,BPND,"GAT-1 [3]; Cingulate cortex, blocking",1.46 ± 0.20
same,BPND,"GAT-1 [3]; Frontal cortex, baseline",3.26 ± 0.52
same,BPND,"GAT-1 [3]; Frontal cortex, blocking",1.04 ± 0.04
same,BPND,"GAT-1 [3]; Hippocampus, baseline",2.40 ± 1.25
same,BPND,"GAT-1 [3]; Hippocampus, blocking",0.64 ± 0.08
same,BPND,"GAT-1 [3]; Insula, baseline",4.08 ± 0.76
same,BPND,"GAT-1 [3]; Insula, blocking",1.25 ± 0.08
same,BPND,"GAT-1 [3]; Occipital cortex, baseline",4.19 ± 0.84
same,BPND,"GAT-1 [3]; Occipital cortex, blocking",1.32 ± 0.13
same,BPND,"GAT-1 [3]; Putamen, baseline",2.09 ± 0.06
same,BPND,"GAT-1 [3]; Putamen, blocking",0.64 ± 0.14
same,BPND,"GAT-1 [3]; Temporal cortex, baseline",4.10 ± 1.41
same,BPND,"GAT-1 [3]; Temporal cortex, blocking",1.20 ± 0.05
same,BPND,"GAT-1 [3]; Thalamus, baseline",1.24 ± 0.11
same,BPND,"GAT-1 [3]; Thalamus, blocking",0.36 ± 0.20
same,VND,GAT-1 [3]; monkey 1,1.03 mL/cm^3
same,VND,GAT-1 [3]; monkey 2,0.96 mL/cm^3
same,VND,GAT-1 [3]; monkey 3,0.64 mL/cm^3
same,"VND, mean ± SD across monkeys","GAT-1 [3]; occupancy plots, 3 monkeys, average rSE of 16%",0.88 ± 0.21 mL/cm^3
same,Occupancy,GAT-1 [3]; monkey 1,65%
same,Occupancy,GAT-1 [3]; monkey 2,70%
same,Occupancy,GAT-1 [3]; monkey 3,71%
same,Occupancy (overall),GAT-1 [3]; tiagabine blocking,69%
same,Parent compound,[4]; 30 min,88 ± 4%
same,Parent compound,[4]; 90 min,83 ± 6%
same,Mean percent difference in VT on shortening scan from 180 to 120 min,GAT-1 [5]; hippocampus,1%
same,Mean percent difference in VT on shortening scan from 180 to 120 min,GAT-1 [5]; thalamus,−12%
same,Mean percent difference in VT with respect to the 180-min value,GAT-1 [5]; frontal cortex,−5%
same,Mean percent difference in VT with respect to the 180-min value,GAT-1 [5]; thalamus,3%
